The results in this text go back to BindingDB's records for doi:10.1016/j.bmcl.2018.01.029 (Presidio Pharmaceuticals, 2018).

pEC50: −log10 of the molar value.

Test [1] is described as follows: Inhibition of HCV genotype 1a NS5A polymerase infected in human HuH7 replicon cells by luciferase reporter gene assay. For orientation: A replicon is a self-replicating genome or part of one, used to study replication in cells.
A short description of test [2]: Inhibition of HCV genotype 1b NS5B polymerase infected in human HuH7 replicon cells by luciferase reporter gene assay.
A short description of test [3]: Inhibition of HCV genotype 1a NS5A polymerase L31V/Y93H double mutant infected in human HuH7 replicon cells by luciferase reporter gene assay.

Consider `CNC(=O)c1c(-c2ccc(F)cc2)oc2cc3c(cc12)[C@@H](C)OC1(CC1)CN3S(C)(=O)=O`, for which the negative logarithm of the EC50 (pEC50) in test [1] was under 5.70; in test [2], 6.18.

For `CNC(=O)c1c(-c2ccc(F)cc2)oc2cc3c(cc12)[C@H](C)N(C)C(=O)CN3S(C)(=O)=O`, the pEC50 is 6.99 in test [1] and 7.89 in test [2]. As to `CNC(=O)c1c(-c2ccc(F)cc2)oc2cc3c(cc12)C(O)CCCN3S(C)(=O)=O` (stereo not given), the negative-log EC50 (pEC50) in test [2] is 6.97; in test [3], 6.14.

As for `CNC(=O)c1c(-c2ccc(F)cc2)oc2cc3c(cc12)[C@H](C)O[C@@H](CO)CN3S(C)(=O)=O`, the pEC50 in test [1] is 7.19; in test [2] it was 7.89.

`CNC(=O)c1c2cc3c(cc2nn1-c1ccc(F)cc1)N(S(C)(=O)=O)CCCC3C` (stereo not given) showed a pEC50 in test [1] of under 5.70. Turning to `CNC(=O)c1c(-c2ccc(F)cc2)oc2cc3c(cc12)[C@@H](C)OCCN3S(C)(=O)=O`, the figures for the negative-log EC50 (pEC50) in test [2] and in test [3] were 6.16 and 6.20, respectively. On to `CNC(=O)c1c(-c2ccc(F)cc2)oc2cc3c(cc12)C(=O)CCCN3S(C)(=O)=O`, for which the pEC50 in test [2] is 7.11; in test [3], 6.50. `CNC(=O)c1c(-c2ccc(F)cc2)oc2cc3c(cc12)C(C)n1nnnc1CN3S(C)(=O)=O` (stereo not given): the pEC50 was 7.48 in test [1] and 8.10 in test [2]. For the compound `CS(=O)(=O)NC(=O)c1c(-c2ccc(F)cc2)oc2cc3c(cc12)CCCCN3S(C)(=O)=O`, the pEC50 in test [3] was under 5.70. The same measure, in the same setting: under `CS(=O)(=O)N1CCCCc2cc3c(C(=O)NC4CC4)c(-c4ccc(F)cc4)oc3cc21` stands under 5.70. The same measure, in the same setting: under `CN(C)C(=O)c1c(-c2ccc(F)cc2)oc2cc3c(cc12)CCCCN3S(C)(=O)=O` stands under 5.70; under `CS(=O)(=O)N1CCCCc2cc3c(C(N)=O)c(-c4ccc(F)cc4)oc3cc21`, under 5.70. Take `CNC(=O)c1c(-c2ccc(F)cc2)nc2cc3c(cn12)C(C)CCCN3S(C)(=O)=O` (stereo not given): the figures for the pEC50 in test [2] and in test [3] were 6.74 and 6.10, respectively. The like results for `CNC(=O)c1c(-c2ccc(Oc3ccc(F)cc3)cc2)oc2cc3c(cc12)C(C)CCCN3S(C)(=O)=O` (stereo not given) were, in that order, 7.85 and 7.15. The like results for `CNC(=O)c1c(-c2ccc(F)cc2F)oc2cc3c(cc12)C(C)CCCN3S(C)(=O)=O` (stereo not given) were, in that order, 8.10 and 7.82. On the same counts, the results for `CNC(=O)c1c(-c2ccccc2F)oc2cc3c(cc12)C(C)CCCN3S(C)(=O)=O` (stereo not given) are 8.15 and 7.96. `CNC(=O)c1c(-c2ccc(F)cc2)oc2cc3c(cc12)[C@@H](C)n1nncc1CN3S(C)(=O)=O`: the pEC50 in test [2] is 7.42. Turning to `CNC(=O)c1c(-c2ccc(F)cc2)oc2cc3c(cc12)[C@@H](C)N(C)C(=O)CN3S(C)(=O)=O`, the pEC50 in test [1] is 6.16; in test [2], 7.23. On to `CNC(=O)c1c(-c2ccc(F)cc2)oc2cc3c(cc12)C(C)NCCN3S(C)(=O)=O` (stereo not given), for which the values for the pEC50 in test [2] and in test [3] were 7.37 and 6.58, respectively. The like results for `CNC(=O)c1c(-c2ccc(F)cc2)oc2cc3c(cc12)[C@H](C)OCCN3S(C)(=O)=O` were, in that order, 8.52 and 8.05. As to `CNC(=O)c1c(-c2ccc(F)cc2)oc2cc3c(cc12)[C@H]1C[C@H]1CCN3S(C)(=O)=O`, the pEC50 in test [2] and in test [3] was under 5.70 each time. `CNC(=O)c1c(-c2ccc(F)cc2)oc2cc3c(cc12)[C@@H]1C[C@@H]1CCN3S(C)(=O)=O`: the figures for the pEC50 in test [2] and in test [3] were 8.15 and 7.60, respectively. The like results for `CNC(=O)c1c(-c2ccc(F)cc2)oc2cc3c(cc12)C1(CCCN3S(C)(=O)=O)CC1` were, in that order, 7.70 and 6.93. On the same counts, the results for `CNC(=O)c1c(-c2ccc(F)cc2)oc2cc3c(cc12)[C@@H](C)CCCN3S(C)(=O)=O` are 7.34 and 7.05.

Take `CNC(=O)c1c(-c2ccc(F)cc2)oc2cc3c(cc12)C(C)CCCN3S(C)(=O)=O` (stereo not given): the pEC50 in test [2] is 8.52; in test [3], 8.00. On the same counts, the results for `C=C1CCCN(S(C)(=O)=O)c2cc3oc(-c4ccc(F)cc4)c(C(=O)NC)c3cc21` are 7.59 and 6.97. `CNC(=O)c1c(-c2ccc(F)cc2)oc2cc3c(cc12)CCCCN3C(=O)OC`: the pEC50 was 6.79 in test [2] and 6.14 in test [3].

For `CS(=O)(=O)N1CCCCc2cc3c(-c4ncn[nH]4)c(-c4ccc(F)cc4)oc3cc21`, the pEC50 in test [2] was 6.07. As for `CN(O)C(=O)c1c(-c2ccc(F)cc2)oc2cc3c(cc12)CCCCN3S(C)(=O)=O`, the negative-log EC50 (pEC50) in test [2] was 6.53; in test [3], under 5.70.

Turning to `CONC(=O)c1c(-c2ccc(F)cc2)oc2cc3c(cc12)CCCCN3S(C)(=O)=O`, the pEC50 in test [2] is 7.51; in test [3] it was 7.05. `CNC(=O)c1c(-c2ccc(F)cc2)oc2cc3c(cc12)CCCCCCN3S(C)(=O)=O` gave a pEC50 in test [2] of 7.59. The same measure, in the same setting: under `CNC(=O)c1c(-c2ccc(F)cc2)oc2cc3c(cc12)CCCCCN3S(C)(=O)=O` stands 8.30; under `CNC(=O)c1c(-c2ccc(F)cc2)oc2cc3c(cc12)CCCN3S(C)(=O)=O`, 6.35.

`CNC(=O)c1c(-c2ccc(F)cc2)oc2cc3c(cc12)CCN3S(C)(=O)=O`: the pEC50 in test [2] is 6.52. `CNC(=O)c1c(-c2ccc(F)cc2)oc2cc3c(cc12)C(C)n1nncc1CN3S(C)(=O)=O` (stereo not given): in test [2], the pEC50 is 8.22.

`CNC(=O)c1c(-c2ccc(F)cc2OC)oc2cc3c(cc12)C(C)CCCN3S(C)(=O)=O` (stereo not given): the pEC50 is 7.25 in test [2] and under 5.70 in test [3]. In test [1], `CCNC(=O)c1c(-c2ccc(F)cc2)oc2cc3c(cc12)CCCCN3S(C)(=O)=O` gave a pEC50 of under 5.70. In test [2], `CNC(=O)c1c(-c2ccc(F)cc2)oc2cc3c(cc12)[C@H](C)NC(=O)CN3S(C)(=O)=O` had a pEC50 of 8.30. As for `CNC(=O)c1c(-c2ccc(F)cc2)oc2cc3c(cc12)C(C)N(C)C(=O)CN3S(C)(=O)=O` (stereo not given), the pEC50 was 6.74 in test [1] and 7.77 in test [2].

In test [2], `CNC(=O)c1c(-c2ccc(F)cc2)oc2cc3c(cc12)[C@@H](C)O[C@@H](CO)CN3S(C)(=O)=O` showed a negative logarithm of the EC50 (pEC50) of 5.83.

`CNC(=O)c1c(-c2ccc(F)cc2)oc2cc3c(cc12)[C@@H](C)O[C@@H](CS(C)(=O)=O)CN3S(C)(=O)=O`: the pEC50 in test [1] is under 5.70; in test [2], 5.92. The like results for `CNC(=O)c1c(-c2ccc(F)cc2)oc2cc3c(cc12)[C@H](C)O[C@@H](CS(C)(=O)=O)CN3S(C)(=O)=O` were, in that order, 7.24 and 7.89. With `CNC(=O)c1c(-c2ccc(F)cc2)oc2cc3c(cc12)C(C)N(C)CCN3S(C)(=O)=O` (stereo not given), the figures for the pEC50 in test [2] and in test [3] were 7.85 and 7.30, respectively.

As to `CNC(=O)c1c(-c2ccc(F)cc2)oc2cc3c(cc12)C(C)=CCCN3S(C)(=O)=O`, the pEC50 in test [2] was 7.80; in test [3] it was 7.15. With `CS(=O)(=O)N1CCCCc2cc3c(C4=NCCN4)c(-c4ccc(F)cc4)oc3cc21`, the pEC50 in test [3] was under 5.70. With `CNC(=O)c1c(-c2ccc(F)cc2)nn2cc3c(cc12)C(C)CCCN3S(C)(=O)=O` (stereo not given), the results for the pEC50 in test [2] and in test [3] were 6.96 and 6.28, respectively. On the same counts, the results for `CNC(=O)c1c(-c2ccc(F)cc2)oc2cc3c(cc12)CCCCN3S(C)(=O)=O` are 7.77 and 7.08. For the compound `CS(=O)(=O)N1CCCCc2cc3c(C(=O)NC#N)c(-c4ccc(F)cc4)oc3cc21`, in test [3], the pEC50 was under 5.70. `CNC(=O)c1c(-c2ccc(F)cc2)oc2cc3c(cc12)[C@H](C)n1nncc1CN3S(C)(=O)=O` showed a pEC50 in test [2] of 8.52.

For orientation: pEC50 means the negative decadic logarithm of the EC50, by convention in mol/L. A lower pEC50 goes with a large EC50.
